Assay results: patent publication US6096293A, “Antiplaque oral composition and method” (priority 1999, dated 2000)

Experiments:
[1] = test system: A. viscosus; test: Minimum Inhibitory Concentration (MIC), neat AA solutions in ethanol; type: cell-based; conditions: for MIC: neat solution in 98.5% ethanol
Description: (§1) The smaller the MIC, the greater the antibacterial activity of the AA being tested. This MIC test is also described in U.S. Pat. No. 5,275,805 at column 11, lines 54-68, which description is herewith incorporated herein.

[2] = test system: S. mutans; test: as above; type: cell-based; conditions: for MIC: neat solution in 98.5% ethanol
Description: as §1

[3] = test system: S. sanguis; test: as above; type: cell-based; conditions: for MIC: neat solution in 98.5% ethanol
Description: as §1

[4] = test system: bacteria; test: Antimicrobial activity in general (comparison with thymol / triclosan, effect of substitution); type: cell-based
[5] = test system: A. viscosus; conditions: Evans 1977; cited from earlier work
[6] = test system: A. naeslundii; conditions: Evans 1977; cited from earlier work
[7] = test system: S. mutans; conditions: Evans 1977; cited from earlier work
[8] = test system: S. sanguis; conditions: Evans 1977; cited from earlier work
[9] = test system: bacteria; conditions: background statement; cited from earlier work
[10] = test system: A. viscosus, A. naeslundii, S. mutans and S. sanguis; conditions: Evans 1977; cited from earlier work
[11] = test system: B. typhosus and Staph. aureus; conditions: v. B. typhosus and Staph. aureus; Suter 1941; cited from earlier work

Compound | MIC [1] | MIC [2] | MIC [3] | inhibition of in vitro growth or plaque formation [10] | phenol coefficient [11] | also measured
CC(C)(C)c1ccc(O)c(C(C)(C)C)c1 [2,4-di-t-butylphenol] | 1.95 ppm | 0.98 ppm | 1.95 ppm | – | – | activity relative to triclosan ([1]; MIC test of Example 5): somewhat less active than triclosan; activity relative to triclosan ([2]; MIC test of Example 5): significantly superior to triclosan; activity relative to triclosan ([3]; MIC test of Example 5): somewhat less active than triclosan; activity relative to thymol ([4]; MIC test of Example 5, A. viscosus, S. sanguis, S. mutans): many times superior to thymol
O=C(Nc1ccc(Br)cc1)c1cc(Br)cc(Br)c1O [3,5,4'-tribromo-salicylanilide] | – | – | – | – | – | effect on growth and plaque formation [5]: effective against growth and plaque formation; effect on growth and plaque formation [6]: effective against growth and plaque formation; effect on growth and plaque formation [7]: effective against growth and plaque formation; effect on growth and plaque formation [8]: effective against growth and plaque formation
O=C(C(=O)c1cc(Br)ccc1O)c1cc(Br)ccc1O [Dibromsalicil] | – | – | – | – | – | effect on growth and plaque formation [5]: effective against A. viscosus
Cc1ccc(C(C)C)c(O)c1 [Thymol, 2-isopropyl-5-methylphenol] | 15.60 ppm | 31.25 ppm | 15.60 ppm | did not inhibit in vitro growth or plaque formation | – | antimicrobial activity relative to triclosan (background) [9]: only a small fraction of the activity of triclosan
Oc1cc(Cl)ccc1Oc1ccc(Cl)cc1Cl [Triclosan] | 0.50 ppm | 1.95 ppm | 0.98 ppm | – | – | activity compared to thymol ([4]; AA's of the Tables, "10 to 100 or more times"): ~100 times
CCC(C)c1ccccc1O (centres unmarked) [o-sec-butyl phenol] | – | – | – | – | 28 | –
CCC(C)c1ccc(O)cc1 (centres unmarked) [p-sec-butyl phenol] | – | – | – | – | 28 | –
O=S(=O)([O-])c1ccc(O)cc1.O=S(=O)([O-])c1ccc(O)cc1.[Zn+2] [zinc phenolsulfonate] | – | – | – | did not inhibit in vitro growth or plaque formation | – | –
phenylphenol | – | – | – | did not inhibit in vitro growth or plaque formation | – | –
tert.butylphenol | – | – | – | – | about 20 | –
